Source: patent US10301272B2, “Carboxamide or sulfonamide substituted thiazoles and related derivatives as modulators for the orphan nuclear receptor ROR[γ]” (Phenex Pharmaceuticals AG, priority 2012, dated 2019)
Where two headings read alike, the source gives them in different places.

Legend:
[1] = target: RORγ (Homo sapiens, UniProt P51449); experiment: RORγ Gal4 Reporter Gene Assay; type: cell-based; conditions: for IC50: 293T cells
Procedure: Determination of a ligand mediated Gal4 promoter driven transactivation to quantify ligand binding to RORγ was performed as follows: DNA encoding three different RORγ protein fragments was cloned into vector pCMV-BD (Stratagene). Expression was under control of a CMV promoter and as fusion to the DNA-binding domain of the yeast protein GAL4. Other vectors used were pFR-Luc (Stratagene) as regulated reporter plasmid. pFR-Luc contains a synthetic promoter with five tandem repeats of the yeast GAL4 binding sites that control expression of the Photinus pyralis (American firefly) luciferase gene. In order to improve experimental accuracy the plasmid pRL-CMV was cotransfected. pRL-CMV contains the constitutive CMV promoter, controlling the expression of the Renilla reniformis luciferase.
The medium is supplemented with 10% fetal bovine serum, 0.1 mM nonessential amino acids, 1 mM sodium pyruvate, 1% Glutamax and 100 units Penicilin/[…] per mL at 37° C. in 5% CO2.
For the assay, […] were plated per well in 96 well plates in 100 μL per well, incubated over night at 37° C. in 5% CO2. […] About 4 h after addition of the transfection solution, fresh Minimal Essential Medium (MEM, same composition as used for plating cells, but without serum) was added. Then compound stocks, prediluted in MEM (same composition as used for plating cells) were added (final vehicle concentration not exceeding 0.1%).
All experiments were done at least in triplicates.

[2] = target: RORγ ligand binding domain (LBD) (Homo sapiens (Human), UniProt P51449); experiment: TR-FRET Activity Assay (ligand sensing assay, LANCE); conditions: for pIC50 (FRET): TR-FRET, interaction of RORγ-LBD with coactivator peptide
Sequence of RORγ ligand binding domain (LBD) (P51449 269-508): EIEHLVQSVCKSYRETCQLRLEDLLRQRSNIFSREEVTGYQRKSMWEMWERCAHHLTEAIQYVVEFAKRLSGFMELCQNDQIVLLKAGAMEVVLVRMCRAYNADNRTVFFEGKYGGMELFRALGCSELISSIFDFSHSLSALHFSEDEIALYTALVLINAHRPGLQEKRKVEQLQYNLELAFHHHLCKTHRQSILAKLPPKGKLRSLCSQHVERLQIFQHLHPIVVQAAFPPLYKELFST

Sequence of RORγ (P51449 whole entry, looked up, the tested form may be a part): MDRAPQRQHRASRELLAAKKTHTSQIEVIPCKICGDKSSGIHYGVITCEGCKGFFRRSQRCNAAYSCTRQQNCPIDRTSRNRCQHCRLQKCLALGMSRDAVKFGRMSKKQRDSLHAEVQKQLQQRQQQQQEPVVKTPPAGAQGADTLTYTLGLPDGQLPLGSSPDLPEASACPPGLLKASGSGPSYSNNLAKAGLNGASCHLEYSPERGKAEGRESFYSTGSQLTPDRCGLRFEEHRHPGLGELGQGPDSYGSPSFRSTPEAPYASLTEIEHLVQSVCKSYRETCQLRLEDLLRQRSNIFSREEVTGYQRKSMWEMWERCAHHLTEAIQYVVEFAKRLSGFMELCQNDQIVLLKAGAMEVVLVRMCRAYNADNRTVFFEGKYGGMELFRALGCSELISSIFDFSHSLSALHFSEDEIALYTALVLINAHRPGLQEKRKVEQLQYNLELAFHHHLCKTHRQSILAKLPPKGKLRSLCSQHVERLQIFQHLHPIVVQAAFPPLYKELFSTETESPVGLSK

Row | Compound | pIC50 (FF) [1] | pIC50 (REN) [1] | pIC50 (FRET) [2] | IC50 ([1]; firefly (FF) luciferase, read-out: pIC50 (FF) (converted)) [nM] | IC50 ([1]; renilla normalised (RENnorm) luciferase, read-out: pIC50 (REN) (converted)) [nM] | IC50 [2] [nM]
1 | CC(C)(C)c1cc(-c2sc(C(=O)NCC3(C(N)=O)CCOCC3)nc2CC2CCCCC2)cc(C2(C)CC2)c1 [6/2] | 7.0/7.5/7.7 | 7.0/7.5/7.7 | 7.0/7.5/7.7 | – | – | –
2 | CC(C)(C)NS(=O)(=O)c1ccc(-c2sc(C(=O)NCC3(C(N)=O)CCOCC3)nc2CC2CCCCC2)c2ccccc12 [6/3] | 6.5/8.5/8.7 | 6.5/8.5/8.7 | 6.5/8.5/8.7 | – | – | –
3 | CC(C)(C)NS(=O)(=O)c1ccc(-c2sc(C(=O)NCC3(O)CCS(=O)(=O)CC3)nc2CC2CCCCC2)c2ccccc12 [6/5] | 6.6/8.5/8.7 | 6.6/8.5/8.7 | 6.6/8.5/8.7 | – | – | –
4 | CC(C)(C)NS(=O)(=O)c1ccc(-c2sc(C(=O)NC3CCS(=O)(=O)CC3)nc2CC2CCCCC2)c2ccccc12 [6/6] | 6.7/9.0/9.0 | 6.7/9.0/9.0 | 6.7/9.0/9.0 | – | – | –
5 | CC(C)(C)NS(=O)(=O)c1ccc(-c2sc(C(=O)NC34CCC(C(=O)O)(CC3)CC4)nc2CC2CCCCC2)c2ccccc12 [6/8] | 6.3/8.2/8.2 | 6.3/8.2/8.2 | 6.3/8.2/8.2 | – | – | –
6 | C[C@H](NS(=O)(=O)c1ccc(-c2sc(C(=O)NC3CCOCC3)nc2CC2CCCCC2)c2ccccc12)C(F)(F)F [6/12] | – | – | – | 2 | 2 | 126
7 | CC(C)(C)NS(=O)(=O)c1ccc(-c2sc(C(=O)NC3CSC3)nc2CC2CCCCC2)c2ccccc12 [6/14] | 6.8/8.7/8.7 | 6.8/8.7/8.7 | 6.8/8.7/8.7 | – | – | –
8 | CC(C)(O)CNC(=O)c1nc(CC2CCCCC2)c(-c2ccc(S(=O)(=O)NC(C)(C)C)c(C(F)F)c2F)s1 [6/18] | 7.0/8.5/8.7 | 7.0/8.5/8.7 | 7.0/8.5/8.7 | – | – | –
9 | CC(C)(C)NS(=O)(=O)c1ccc(-c2sc(C(=O)NN3CCOCC3)nc2CC2CCCCC2)c(Cl)c1Cl [6/20] | 6.9/8.7/8.7 | 6.9/8.7/8.7 | 6.9 | – | – | –
10 | CC(C)(C)NS(=O)(=O)c1ccc(-c2sc(C(=O)NN3CCS(=O)(=O)CC3)nc2CC2CCCCC2)c(Cl)c1Cl [6/21] | 6.8/8.7/8.7 | 6.8/8.7/8.7 | 6.8/8.7/8.7 | – | – | –
11 | CC(C)(C)NS(=O)(=O)c1ccc(-c2sc(C(=O)NC3CCOCC3)nc2CC2CCCCC2)cc1C(C)(C)O [6/22] | 6.8/7.7/7.7 | 6.8/7.7/7.7 | 6.8/7.7/7.7 | – | – | –
12 | CC(C)(O)CNC(=O)c1nc(CC2CCCCC2)c(-c2ccc(S(=O)(=O)NC(C)(C)C)c(C(C)(C)O)c2)s1 [6/23] | 6.6/7.5/7.6 | 6.6/7.5/7.6 | 6.6/7.5/7.6 | – | – | –
13 | CC(C)(C)NS(=O)(=O)c1ccc(-c2sc(C(=O)NC3CSC3)nc2CC2CCCCC2)cc1C(C)(C)O [6/24] | 7.3/7.9/8.0 | 7.3/7.9/8.0 | 7.3/7.9/8.0 | – | – | –
14 | CC(C)(C)NS(=O)(=O)c1ccc(-c2sc(C(=O)NCCN3CCOCC3)nc2CC2CCCCC2)cc1C(C)(C)O [6/25] | 5.8/6.7/6.7 | 5.8/6.7/6.7 | 5.8/6.7/6.7 | – | – | –
15 | CC(C)(C)NS(=O)(=O)c1ccc(-c2sc(C(=O)NC3CCS(=O)(=O)CC3)nc2CC2CCCCC2)cc1C(C)(C)O [6/26] | 6.6/7.7/7.8 | 6.6/7.7/7.8 | 6.6/7.7/7.8 | – | – | –
16 | CC(C)(C)NS(=O)(=O)c1ccc(-c2sc(C(=O)NCC3(O)CCOCC3)nc2CC2CCCCC2)cc1C(C)(C)O [6/27] | 6.7/7.7/7.7 | 6.7/7.7/7.7 | 6.7/7.7/7.7 | – | – | –
17 | CC(C)(C)NS(=O)(=O)c1ccc(-c2sc(C(=O)NC3CSC3)nc2CC2CCCCC2)c(Cl)c1Cl [6/30] | 7.2/8.7/8.7 | 7.2/8.7/8.7 | 7.2/8.7/8.7 | – | – | –
18 | CC(C)(C)NS(=O)(=O)c1ccc(-c2sc(C(=O)NC3CC3)nc2CC2CCCCC2)c(Cl)c1Cl [6/31] | 7.3/8.0/8.0 | 7.3/8.0/8.0 | 7.3/8.0/8.0 | – | – | –
19 | CC(C)(C)NS(=O)(=O)c1ccc(-c2sc(C(=O)N3CC4(CSC4)C3)nc2CC2CCCCC2)c(Cl)c1Cl [6/32] | 6.9/8.0/8.2 | 6.9/8.0/8.2 | 6.9/8.0/8.2 | – | – | –
20 | CC(C)(C)NS(=O)(=O)c1ccc(-c2sc(C(=O)N3CC4(COC4)C3)nc2CC2CCCCC2)c(Cl)c1Cl [6/33] | 6.6/7.9/8.0 | 6.6/7.9/8.0 | 6.6/7.9/8.0 | – | – | –
21 | CC(C)(C)NS(=O)(=O)c1ccc(-c2sc(C(=O)NC3COC3)nc2CC2CCCCC2)c(Cl)c1Cl [6/34] | 7.2/8.5/8.5 | 7.2/8.5/8.5 | 7.2/8.5/8.5 | – | – | –
22 | CCC(C)(C)NS(=O)(=O)c1ccc(-c2sc(C(=O)NCC(C)(C)O)nc2C(=O)N2CCC(C)CC2)c(Cl)c1C [Example 301/1] | nt/8.5/8.5 | nt/8.5/8.5 | – | – | – | –
23 | CCC(C)(C)NS(=O)(=O)c1ccc(-c2sc(C(=O)N[C@H]3C[C@H](C(=O)O)C3)nc2C(=O)N2CCC(C)CC2)c(Cl)c1C [Example 302, trans-3-(5-(2-Chloro-3-methyl-4-(N-(tert-pentyl)sulfamoyl)phenyl)-4-(4-methylpiperidine-1-carbonyl)thiazole-2-carboxamido)cyclobutanecarboxylic acid] | nt/7.3/7.5 | nt/7.3/7.5 | – | – | – | –
24 | CCC(C)(C)NS(=O)(=O)c1ccc(-c2sc(C(=O)NCc3ncc(S(C)(=O)=O)s3)nc2C(=O)N2CCC(C)CC2)c(Cl)c1C [Example 303, 5-(2-Chloro-3-methyl-4-(N-(tert-pentyl)sulfamoyl)phenyl)-4-(4-methylpiperidine-1-carbonyl)-N-((5-(methylsulfonyl)thiazol-2-yl)methyl)thiazole-2-carboxamide] | nt/7.7/7.7 | nt/7.7/7.7 | – | – | – | –
25 | CC(C)(O)CNC(=O)c1nc(C(F)F)c(-c2ccc(S(=O)(=O)NC(C)(C)C)c3ccccc23)s1 [Example 305, 5-(4-(N-(tert-butyl)sulfamoyl)naphthalen-1-yl)-4-(difluoromethyl)-N-(2-hydroxy-2-methylpropyl)thiazole-2-carboxamide] | nt/6.6/7.2 | nt/6.6/7.2 | – | – | – | –
26 | CC1CCN(C(=O)c2nc(C(=O)N3CC4(CCS(=O)(=O)CC4)C3)oc2-c2ccc(S(=O)(=O)NC(C)(C)C)c3ccccc23)CC1 [Example 306, N-(tert-Butyl)-4-(2-(7,7-dioxido-7-thia-2-azaspiro[3.5]nonane-2-carbonyl)-4-(4-methyl-piperidine-1-carbonyl)oxazol-5-yl)naphthalene-1-sulfonamide] | nt/5.6/5.6 | nt/5.6/5.6 | – | – | – | –
27 | CC(C)(C)NS(=O)(=O)c1ccc(-c2sc(C(=O)N[C@H]3C[C@H](C(=O)O)C3)cc2CC2CCCCC2)c2ccccc12 [Example 307, trans-3-(5-(4-(N-(tert-Butyl)sulfamoyl)naphthalen-1-yl)-4-(cyclohexylmethyl)thiophene-2-carboxamido)cyclobutanecarboxylic acid] | nt/8.2/8.3 | nt/8.2/8.3 | – | – | – | –
28 | CC(C)(C)NS(=O)(=O)c1ccc(-c2sc(C(=O)NC3CCS(=O)(=O)CC3)cc2CC2CCCCC2)c2ccccc12 [Example 307/1] | nt/8.4/8.5 | nt/8.4/8.5 | – | – | – | –
